Entries after “also recorded” stand apart in the source; their conditions may differ.
Assays:
RAW 264.7 cells = assay: Cell viability of drug treated RAW 264.7 cells (CellTiter 96 AQueous One, MTS)
Experimental: Assessments of drug anti-TNF-α and nitric oxide generation in RAW 264.7 cells: RAW 264.7 cells were purchased from ATCC Manassas, VA, USA). The cells were grown in DMEM media (Invitrogen, DMEM, high glucose, GlutaMAX Supplement, pyruvate, #10569-010) supplemented with 10% FBS (Invitrogen, Fetal Bovine Serum, qualified, heat inactivated, #16140-071) with penicillin and streptomycin (Invitrogen, Penicillin-Streptomycin (10,000 U/mL), #15140-122) and were maintained at 37 C and 5% CO2. The cells were grown to 75%-85% confluence on 10 cm plates (corning-Fal-con, #353003) following the protocol described by ATTC. to assess for drug effects on LPS-induced markers of inflammation, namely TNF-α protein and nitrite ion levels (NO2, a stable end-product of nitric oxide metabolism) cells were seeded into 24 well (VWR, #10062-896) at a density of 200×10^3 cells per well. On each plate there was one blank well where no cells were added yet culture media in the well was treated similarly to wells with cells (n=1). The blank well media was used for background subtraction for various downstream assays. twenty-four hours after seeding the plate the seeding media was replaced with fresh media. Two hours after this the cells were exposed to a range of concentrations of drug test-compound(s) dissolved in 100% tissue culture grade dimethyl sjloxide (DMSO, SIGMA #D2650). Drug stocks were prepared in a 200 times more concentrated stock in DMSO. The final concentration of DMSO added to the cells was 0.5%. The effects of each concentration of drug were assessed in 4 wells per concentration in the 24 well plate (n=3 #-4). On each plate one set of wells were assigned as drug-vehicle control (i.e. DMSO), one test compound was assessed on one 24 well plate. […] One hour after the drugs were added the cells were challenged with lipopolysaccharide (LPS, SIGMA, serotype 055:B5) at a final concentration of 60 ng/ml. Twenty to twenty-four hours after the cells were challenged with LPS the culture media was collected and utilized for the measurement of markers of inflammation.
Cellular viability assessment of drug treated RAW 264.7 cells: RAW 264.7 cell viability was determined by use of the CellTiter 96 AQueous One Solution Cell Proliferation Assay (Promega, Madison, WI). Changes in cellular health status were determined by use of indirect measures related to the formation of a colored tetrazolium dye product that can be measured spectrophotometrically at 490 nm. An increase in absorbance at 490 nm is indicative of an increase in numbers of healthy cells; similarly a reduction in absorbance is indicative of a reduction of healthy cells. After the culture media was harvested for use in TNF-α and NO2— ion assays, the media was replaced with 0.5 mL of fresh media plus 100 μL of the cell viability reaction mixture. After a 20-30 min incubation at 37° C. with 5% CO2 the absorbance at 490 nm was obtained using an infinite M200 PRO plate reader (TECAN, USA).
Statistical analyses for RAW-derived assays: Data are expressed as a percentage change from the DMSO-vehicle control measurements. Measurements are expressed as mean±standard errors, where the n number represents the number of wells in a 24 well plate. Due to the presence of one blank control well on each plate, for some drug concentrations the n number is 3 # and not 4. Statistical comparisons were undertaken by use of a One-Way ANOVA with appropriate Bonferroni corrections for multiple comparisons, as required (GraphPad InStat Version 3.05). P values of <0.05 are considered to be of statistical significance.
RAW 264.7 cell culture: RAW 264.7 mouse cells were purchased from ATCC (Manassas, VA, USA) and grown in DMEM media supplemented with 10% FCS, penicillin 100 U/ml and streptomycin 100 μg/ml (ThermoFisher Scientific, Asheville, NC, USA). The cells were maintained at 37° C. and 5% CO2.

SALL4 = SALL4 (Homo sapiens (Human), UniProt Q9UJQ4); assay: SALL4 expression in Tera-1 cells (Western blot); assay type: cell-based; conditions: Tera-1 cells, 0.1 μM and 1 μM
Experimental: (§1) For Western blot analysis, total proteins were extracted using RIPA buffer (ThermoFisher Scientific, Waltham, MA) containing Halt Protease Inhibitor Cocktail (ThermoFisher Scientific). […] After incubation at 4° C. overnight, the following HRP conjugated secondary antibodies were used: (i) goat anti-rabbit IgG (ThermoFisher Scientific) for ikaros and aiolos, and (ii) goat anti-mouse IgG (ThermoFisher Scientific) for SALL4 and GAPDH. […] Antigen-antibody complexes were detected using enhanced chemiluminescence (Thermo, iBright CL1500).
Specifically, MM1.S cells were obtained from ATCC (Manassas, VA, USA), grown in RPMI media supplemented with 10% FBS, penicillin 100 U/mL, and streptomycin […], and maintained at 37° C. and 5% CO2.
as §1, with “MA, USA)” for “MA)”, “Scientific). Thereafter, the proteins were separated by gel electrophoresis and then transferred to polyvinylidene difluoride (PVDF) membranes (ThermoFisher Scientific), as described previously.” for “Scientific).”, “HRP-conjugated” for “HRP conjugated”, “Ikaros” for “ikaros”, “Aiolos,” for “aiolos,”, “(ThermoFisher Scientific,” for “(Thermo,”

CCI-induced TBI mice = assay: CCI mouse model of TBI: Iba1 microglia / GFAP astrocyte immunofluorescence (MotiQ); assay type: in vivo
Experimental: In vivo model of TBI: Mice were anesthetized with 2.5% tribromoethanol (Avertin: 250 mg/kg; Sigma, St. Louis, MO, USA) and placed in a stereotaxic frame (Kopf Instruments, Tujunga, CA, USA). A 4 mm craniotomy was performed using sterile procedures; the craniotomy point was selected midway between the lambda and bregma sutures and laterally midway between the central suture and the temporalis muscle. The skull fragment was then carefully removed without disruption of the underlying dura. Prior to injury induction, the tip of the impactor was angled and kept perpendicular to the exposed cortical surface. The mouse CCI instrument consisted of an electromagnetic impactor, Impact One (Leica Biosystems Inc., Buffalo Grove, IL, USA) that allows independent alteration of injury severity by controlling contact velocity and the level of cortical deformation. In these experiments, the contact velocity was set at 5.0 m/sec, the dwell time was set at 0.2 s and the deformation depth was set at 2 mm to produce a moderate TBI. The injury site was allowed to dry prior to suturing the wound. During surgery and recovery, the body temperature of the animals was maintained at 36-37° C. by using a heating pad. […] Mice were randomized following CCI to treatment with either of two doses of TFBP (16.25 mg/kg and 32.5 mg/kg, i.p.) or saline, and were dosed at 1 and 24 hr after the injury.
Tissue processing: Two weeks after injury, mice were deeply anesthetized with isoflurane and perfused transcardially with 30 ml phosphate buffered saline (PBS). After removal, the brain was post-fixed with 4% PFA overnight then transferred to a 30% sucrose solution in PBS. Coronal sections from the dorsal hippocampus and the posterior parietal cortex were cryosectioned at 25 μm thickness and stored in cryoprotectant solution for Giemsa staining and immunohistochemical analysis.
Immunofluorescence analysis: For GFAP and Iba1 quantification, brain samples were incubated overnight with either one of the following primary antibodies: anti-GFAP 1:2500 dilution (chicken polyclonal, Abcam, USA, cat #ab4674) or anti-Iba1 1:200 dilution (guinea pig polyclonal anti-Iba1, Synaptic System, USA, cat #234004). After PBS washing, sections were incubated for 1 hr at RT with a goat anti-chicken AlexaFluor® 488-conjugated secondary antibody IgY (H+L) 1:500 dilution (ThermoFisher, USA, cat #A-21432) for detection of GFAP, and with a Goat anti-Guinea Pig IgG (H+L) Highly Cross-Adsorbed Secondary Antibody, Alexa Fluor™ 555, ThermoFisher, USA, cat #A-21435) for detection of Iba1. Sections were washed in PBS and mounted with […]® Antifade Mounting Medium with DAPI (Vectorlabs, USA, cat #H-1200). Controls consisted of omission of the primary antibody. […] Multiple parameters were analyzed, including ramification index, spanned area, number of branches, junctions and endpoints.
In Vivo Model of TBI: TBI studies were conducted in 8-week-old male C57/BL6 mice (25-30 g; n=20), Jackson Laboratory, Bar Harbor, Maine USA. Mice were randomly assigned to four groups prior surgery, CMC+Sham, CMC+TBI, compound 30 (Low dose (LD), 14.78 mg/kg, prepared in 1% CMC in PBS)+TBI, compound 30 (High dose (HD), 29.57 mg/kg)+TBI, and evaluated the effects of compound 30 on TBI. Mice were assessed for gait function and motor coordination, balance function. Animals were subsequently evaluated for cellular changes using histological and immunohistochemistry staining. […]

Row | SMILES | cell viability (RAW 264.7 cells; 1 μM, RAW 264.7 cells) [%] | Cell Viability % Δ (RAW 264.7 cells; 1 μM, RAW 264.7 cells, percentage of vehicle control value, mean ± S.E.M., n = 3) [%] | cell viability (in words) (RAW 264.7 cells; 100-1000 nM, vs LPS+Vehicle) | SALL4 expression levels (SALL4) | SALL4 expression levels (SALL4; listed as TFBP) | microglial morphology (ramification index, spanned area, end points, branches, junctions), ipsilateral side (CCI-induced TBI mice; lower and higher dose, 2 weeks after CCI) | SALL4 expression levels (SALL4; listed as TFNBP) | cellular viability (RAW 264.7 cells; 0.6-60 μM, LPS 60 ng/mL, 24 h) [%] | number of astrocytes (GFAP) in cortex (CCI-induced TBI mice; 14.78, 29.57 mg/kg, 2 weeks after TBI) | number of branches, junctions, endpoints of microglial processes (CCI-induced TBI mice; 14.78, 29.57 mg/kg, ipsilateral cortex) | number of microglia induced by TBI (CCI-induced TBI mice; cortex) | microglial ramification index and spanned area (CCI-induced TBI mice; ipsilateral cortex, 2 weeks after TBI)
1 | CC1(C)[C@@H]2CC[C@@]1(C)[C@@H](N1C(=O)c3c(F)c(F)c(F)c(F)c3C1=O)C2 [Compound 14, 4,5,6,7-Tetrafluoro-2-((1R,2S,4R)-1,7,7-trimethylbicyclo[2.2.1]heptan-2-yl) isoindoline-1,3-dione] | ≥ 94 | 95 ± 4 | not significantly affected; also recorded: without impact on cell viability | did not statistically affect | did not lower the expression of neosubstrate SALL4 | substantially counteracted these CCI-induced microglial phenotypic measures | – | – | – | – | – | –
2 | O=C1c2c(F)c(F)c(F)c(F)c2C(=O)N1C1CC2CCC1C2 (stereo not drawn) [Compound 16, 2-Endo-(bicyclo[2.2.1]heptan-2-yl)-4,5,6,7-tetrafluoroisoindoline-1,3-dione] | – | – | – | did not statistically affect | – | – | did not lower the expression of neosubstrate SALL4 | – | – | – | – | –
3 | Nc1ccc(F)c2c1C(=S)N(C1CCC(=S)NC1=O)C2=O (stereo not shown) [Compound 30, 4-amino-7-fluoro-2-(2-oxo-6-thioxopiperidin-3-yl)-3-thioxoisoindolin-1-one] | – | – | – | – | – | – | – | > 90 | significantly decreased the number of astrocytes | significantly rescue the morphological changes of microglia | subtle reduction, but not significant | significantly ameliorated the morphological alteration of microglia
